SMILES strings stand for the structures.

The target of this experiment is T1, B1R of the rat (Rattus norvegicus, UniProt P97583).
T1 construct: expressed in transfected cells; host or cells: CHO K1 cells (Chinese hamster ovary), stably transfected
T1 sequence (P97583 1-337): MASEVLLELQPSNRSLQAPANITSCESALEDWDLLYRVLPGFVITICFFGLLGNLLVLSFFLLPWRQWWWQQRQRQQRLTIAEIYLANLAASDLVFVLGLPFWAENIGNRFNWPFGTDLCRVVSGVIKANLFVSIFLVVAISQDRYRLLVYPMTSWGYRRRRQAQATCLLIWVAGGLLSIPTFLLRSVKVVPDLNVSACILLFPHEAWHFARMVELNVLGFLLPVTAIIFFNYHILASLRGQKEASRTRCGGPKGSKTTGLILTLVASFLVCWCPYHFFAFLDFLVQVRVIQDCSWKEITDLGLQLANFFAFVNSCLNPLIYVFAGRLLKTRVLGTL
The experiment in a line: FLIPR Ca2+ functional assay, B1R antagonism, rat B1R in CHO K1 cells. To be noted: test substance 10 μM; rB1R CHO K1 cells; agonist Des-Arg9 bradykinin at EC80; % of maximum achievable inhibition. Type of experiment: cell-based. The method, then: The agonistic or antagonistic action of substances on the bradykinin 1 receptor (B1R) of the human and rat species can be quantified with ectopically expressing cell lines (CHO K1 cells) and with the aid of a Ca^2+-sensitive dye (Fluo-4) using a fluorescent imaging plate reader (FLIPR). The value in % activation is based on the Ca^2+ signal after addition of Lys-Des-Arg^9 bradykinin (0.5 nM) or Des-Arg^9 bradykinin (100 nM). Antagonists lead to a suppression of the Ca^2+ influx following administration of the agonist. The % inhibition in comparison with the maximum achievable inhibition is indicated.
1. Functional Investigation on the Bradykinin 1 Receptor (B1R) The agonistic or antagonistic action of substances can be determined on the bradykinin 1 receptor (B1R) of the human and rat species with the following assay. According to this assay, the Ca^2+ inflow through the channel is quantified with the aid of a Ca^2+-sensitive dye (Fluo-4 type, Molecular Probes Europe BV, Leiden, Netherlands) in a fluorescent imaging plate reader (FLIPR, Molecular Devices, Sunnyvale, USA). 2. Method: Chinese hamster ovary cells (CHO K1 cells) which are stably transfected with the human B1R gene (hB1R cells) or the B1R gene of the rat (rB1R cells) are used. For functional investigations these cells are plated-out onto black 96-well plates with a clear base (BD Biosciences, Heidelberg, Germany or Greiner, Frickenhausen, Germany) in a density of 20,000-35,000 cells/well. Overnight the cells are incubated at 37° C. and 5% CO2 in culture medium (hB1R cells: Ham's Nutrient Mixture F12, Gibco Invitrogen GmbH, Karlsruhe, Germany or DMEM, Sigma-Aldrich, Taufkirchen, Germany; rB1R cells: D-MEM/F12, Gibco Invitrogen, Karlsruhe, Germany) with 10 vol. % FBS (foetal bovine serum, Gibco Invitrogen GmbH, Karlsruhe, Germany or PAN Biotech GmbH, Aidenbach, Germany).
On the following day the cells are loaded with 2.13 μM Fluo-4 (Molecular Probes Europe BV, Leiden, Netherlands) in HBSS buffer (Hank's buffered saline solution, Gibco Invitrogen GmbH, Karlsruhe, Germany) with 2.5 mM probenecid (Sigma-Aldrich, Taufkirchen, Germany) and 10 mM HEPES (Sigma-Aldrich, Taufkirchen, Germany) for 60 min at 37° C. The plates are subsequently washed twice with HBSS buffer, and HBSS buffer which additionally contains 0.1% BSA (bovine serum albumin; Sigma-Aldrich, Taufkirchen, Germany), 5.6 mM glucose and 0.05% gelatine (Merck KGaA, Darmstadt, Germany) is added. After a further incubation of 20 minutes at RT, the plates are inserted into the FLIPR for Ca^2+ measurement. Alternatively they are washed with buffer A (15 mM HEPES, 80 mM NaCl, 5 mM KCl, 1.2 mM CaCl2, 0.7 mM MgSO4, 2 g/l glucose, 2.5 mM probenecid) and loaded with buffer A with added 2.5 μM Fluo-4 and 0.025% Pluronic F127 (Sigma-Aldrich, Taufkirchen, Germany). The cells are then washed twice with buffer A and incubated for 30 minutes with buffer A, which additionally contains 0.05% BSA and 0.05% gelatine, at RT and then used for Ca^2+ measurement in the FLIPR. The Ca^2+-dependent fluorescence is measured here before and after addition of substances (λex=488 nm, λem=540 nm). The quantification is performed by measuring the highest fluorescence intensity (FC, fluorescence counts) over time.
The FLIPR protocol comprises two additions of substance. Test substances (10 μM) are first pipetted onto the cells and the Ca^2+ inflow is compared with the control (hB1R: Lys-Des-Arg^9 bradykinin >=50 nM; rB1R: Des-Arg^9 bradykinin 10 μM). The value in % activation based on the Ca^2+ signal after addition of Lys-Des-Arg^9 bradykinin (>=50 nM) or Des-Arg^9 bradykinin (10 μM) is obtained therefrom. After incubation for 10-20 minutes, Lys-Des-Arg^9 bradykinin (hB1R) or Des-Arg^9 bradykinin (rB1R) is applied in the EC80 concentration and the inflow of Ca^2+ is likewise determined.
Antagonists lead to a suppression of the Ca^2+ inflow. The % inhibition in comparison with the maximum achievable inhibition is calculated. […]
By inhibition is commonly meant the percentage by which the read-out fell short of the control. `Cc1cccc(Cl)c1S(=O)(=O)N1CCn2cccc2C1CC(=O)NC(CN1CCN(C)CC1)c1ccccc1` (stereo not shown) [Example 156, 2-[2-[(2-Chloro-6-methyl-phenyl)sulfonyl]-1,2,3,4-tetrahydro-pyrrolo[1,2-a]pyrazin-1-yl]-N-[2-(4-methyl-piperazin-1-yl)-1-phenyl-ethyl]-acetamide] came in with an inhibition at 10 µM of 95.1%.
The value for `Cc1cccc(Cl)c1S(=O)(=O)N1CCn2cccc2C1CC(=O)NC1CCN(Cc2ccccc2)C1` (stereo not shown) [Example 157, N-(1-Benzyl-pyrrolidin-3-yl)-2-[2-[(2-chloro-6-methyl-phenyl)sulfonyl]-1,2,3,4-tetrahydro-pyrrolo[1,2-a]pyrazin-1-yl]-acetamide] was 69.5%.
Regarding `Cc1cccc(Cl)c1S(=O)(=O)N1CCn2cccc2C1CC(=O)N1CCN(c2ccccc2F)CC1` (stereo not shown) [Example 158, 2-[2-[(2-Chloro-6-methyl-phenyl)sulfonyl]-1,2,3,4-tetrahydro-pyrrolo[1,2-a]pyrazin-1-yl]-1-[4-(2-fluorophenyl)-piperazin-1-yl]-ethanone], at 10 µM the inhibition was 32%.
`Cc1cccc(Cl)c1S(=O)(=O)N1CCn2cccc2C1CC(=O)N1CCC(N2CCOCC2)CC1` (stereo not shown) [Example 159, 2-[2-[(2-Chloro-6-methyl-phenyl)sulfonyl]-1,2,3,4-tetrahydro-pyrrolo[1,2-a]pyrazin-1-yl]-1-(4-morpholin-4-yl-piperidin-1-yl)-ethanone] had an inhibition at 10 µM of 3.48%.
`Cc1cccc(Cl)c1S(=O)(=O)N1CCn2cccc2C1CC(=O)N1CCC(N2CCCCC2)CC1` (stereo not shown) [Example 160, 2-[2-[(2-Chloro-6-methyl-phenyl)sulfonyl]-1,2,3,4-tetrahydro-pyrrolo[1,2-a]pyrazin-1-yl]-1-(4-piperidin-1-yl-piperidin-1-yl)-ethanone] came in with an inhibition at 10 µM of 42.8%.
Take `Cc1cccc(Cl)c1S(=O)(=O)N1CCn2cccc2C1CC(=O)N1CCC(N2CCN(C)CC2)CC1` (stereo not shown) [Example 161, 2-[2-[(2-Chloro-6-methyl-phenyl)sulfonyl]-1,2,3,4-tetrahydro-pyrrolo[1,2-a]pyrazin-1-yl]-1-[4-(4-methyl-piperazin-1-yl)-piperidin-1-yl]-ethanone]: the inhibition at 10 µM was found to be 10.5%.
The molecule `Cc1cccc(Cl)c1S(=O)(=O)N1CCn2cccc2C1CC(=O)N1CCN(c2ncccn2)CC1` (stereo not shown) [Example 162, 2-[2-[(2-Chloro-6-methyl-phenyl)sulfonyl]-1,2,3,4-tetrahydro-pyrrolo[1,2-a]pyrazin-1-yl]-1-(4-pyrimidin-2-yl-piperazin-1-yl)-ethanone] yielded an inhibition at 10 µM of 25.2%.
In turn, `Cc1ccc2[nH]c(C3CCN(C(=O)CC4c5cccn5CCN4S(=O)(=O)c4c(C)cccc4Cl)CC3)nc2c1` (stereo not shown) [Example 163, 2-[2-[(2-Chloro-6-methyl-phenyl)sulfonyl]-1,2,3,4-tetrahydro-pyrrolo[1,2-a]pyrazin-1-yl]-1-[4-(5-methyl-1H-benzoimidazol-2-yl)-piperidin-1-yl]-ethanone] yielded an inhibition at 10 µM of 39.7%.
In the case of `Cc1cccc(Cl)c1S(=O)(=O)N1CCn2cccc2C1CC(=O)N1CCCN(c2ncccc2C#N)CC1` (stereo not shown) [Example 164, 2-[4-[2-[2-[(2-Chloro-6-methyl-phenyl)sulfonyl]-1,2,3,4-tetrahydro-pyrrolo[1,2-a]pyrazin-1-yl]-acetyl]-[1,4]diazepan-1-yl]-pyridine-3-carbonitrile], the inhibition at 10 µM is 44.1%.
The molecule `Cc1cccc(Cl)c1S(=O)(=O)N1CCn2cccc2C1CC(=O)N1CCC(CCN2CCCCC2)CC1` (stereo not shown) [Example 165, 2-[2-[(2-Chloro-6-methyl-phenyl)sulfonyl]-1,2,3,4-tetrahydro-pyrrolo[1,2-a]pyrazin-1-yl]-1-[4-(2-piperidin-1-yl-ethyl)-piperidin-1-yl]-ethanone] gave an inhibition at 10 µM of 55.8%.
`Cc1cccc(Cl)c1S(=O)(=O)N1CCn2cccc2C1CC(=O)NCC1CCN(Cc2ccccc2)C1` (stereo not shown) [Example 166, N-[(1-Benzyl-pyrrolidin-3-yl)-methyl]-2-[2-[(2-chloro-6-methyl-phenyl)sulfonyl]-1,2,3,4-tetrahydro-pyrrolo[1,2-a]pyrazin-1-yl]-acetamide]: the inhibition at 10 µM is 99.1%.
`O=C(CC1c2cccn2CCN1S(=O)(=O)c1ccccc1)N1CCC(O)(c2cccnc2)CC1` (stereo not shown) [Example 167, 2-[2-(Benzenesulfonyl)-1,2,3,4-tetrahydro-pyrrolo[1,2-a]pyrazin-1-yl]-1-(4-hydroxy-4-pyridin-3-yl-piperidin-1-yl)-ethanone] yielded an inhibition at 10 µM of 0.145%.
As for `O=C(CC1c2cccn2CCN1S(=O)(=O)c1ccccc1)NCCN1CCCC1` (stereo not shown) [Example 168, 2-[2-(Benzenesulfonyl)-1,2,3,4-tetrahydro-pyrrolo[1,2-a]pyrazin-1-yl]-N-(2-pyrrolidin-1-yl-ethyl)-acetamide], the inhibition at 10 µM was 40.1%.
With `CC1CCCC(C)N1CCCNC(=O)CC1c2cccn2CCN1S(=O)(=O)c1ccccc1` (stereo not shown) [Example 169, 2-[2-(Benzenesulfonyl)-1,2,3,4-tetrahydro-pyrrolo[1,2-a]pyrazin-1-yl]-N-[3-(2,6-dimethyl-piperidin-1-yl)-propyl]-acetamide] the figure was 7.57%; with `CN1CCN(CC(NC(=O)CC2c3cccn3CCN2S(=O)(=O)c2ccccc2)c2ccccc2)CC1` (stereo not shown) [Example 170, 2-[2-(Benzenesulfonyl)-1,2,3,4-tetrahydro-pyrrolo[1,2-a]pyrazin-1-yl]-N-[2-(4-methyl-piperazin-1-yl)-1-phenyl-ethyl]-acetamide], 68.4%.
`O=C(CC1c2cccn2CCN1S(=O)(=O)c1ccccc1)NC1CCN(Cc2ccccc2)C1` (stereo not shown) [Example 171, 2-[2-(Benzenesulfonyl)-1,2,3,4-tetrahydro-pyrrolo[1,2-a]pyrazin-1-yl]-N-(1-benzyl-pyrrolidin-3-yl)-acetamide] registered an inhibition at 10 µM of 24.4%.
As for `O=C(CC1c2cccn2CCN1S(=O)(=O)c1ccccc1)N1CCN(c2ccccc2F)CC1` (stereo not shown) [Example 172, 2-[2-(Benzenesulfonyl)-1,2,3,4-tetrahydro-pyrrolo[1,2-a]pyrazin-1-yl]-1-[4-(2-fluorophenyl)-piperazin-1-yl]-ethanone], the inhibition at 10 µM amounted to 14.1%.
Turning to `CCN1CCN(C(=O)CC2c3cccn3CCN2S(=O)(=O)c2ccccc2)CC1` (stereo not shown) [Example 173, 2-[2-(Benzenesulfonyl)-1,2,3,4-tetrahydro-pyrrolo[1,2-a]pyrazin-1-yl]-1-(4-ethyl-piperazin-1-yl)-ethanone], at 10 µM the inhibition was 9.74%.
In turn, `O=C(CC1c2cccn2CCN1S(=O)(=O)c1ccccc1)N1CCN(c2ccccc2)CC1` (stereo not shown) [Example 174, 2-[2-(Benzenesulfonyl)-1,2,3,4-tetrahydro-pyrrolo[1,2-a]pyrazin-1-yl]-1-(4-phenyl-piperazin-1-yl)-ethanone] came in with an inhibition at 10 µM of 28%.

The record behind these values is US8158628B2, “Sulfonylated 1,2,3,4-tetrahydropyrrolo[1,2-a]pyrazine compounds and their use as pharmaceuticals” (Gruenenthal GmbH, priority 2009, dated 2012).
